Legend:
[1] = target: T1, S. mansoni TGR (Schistosoma mansoni, UniProt Q962Y6); assay: S. mansoni TGR enzyme inhibition (DTNB reduction); type: biochemical; settings: for % inhibition: TGR
T1 construct: made in house
T1 sequence (Q962Y6 1-598): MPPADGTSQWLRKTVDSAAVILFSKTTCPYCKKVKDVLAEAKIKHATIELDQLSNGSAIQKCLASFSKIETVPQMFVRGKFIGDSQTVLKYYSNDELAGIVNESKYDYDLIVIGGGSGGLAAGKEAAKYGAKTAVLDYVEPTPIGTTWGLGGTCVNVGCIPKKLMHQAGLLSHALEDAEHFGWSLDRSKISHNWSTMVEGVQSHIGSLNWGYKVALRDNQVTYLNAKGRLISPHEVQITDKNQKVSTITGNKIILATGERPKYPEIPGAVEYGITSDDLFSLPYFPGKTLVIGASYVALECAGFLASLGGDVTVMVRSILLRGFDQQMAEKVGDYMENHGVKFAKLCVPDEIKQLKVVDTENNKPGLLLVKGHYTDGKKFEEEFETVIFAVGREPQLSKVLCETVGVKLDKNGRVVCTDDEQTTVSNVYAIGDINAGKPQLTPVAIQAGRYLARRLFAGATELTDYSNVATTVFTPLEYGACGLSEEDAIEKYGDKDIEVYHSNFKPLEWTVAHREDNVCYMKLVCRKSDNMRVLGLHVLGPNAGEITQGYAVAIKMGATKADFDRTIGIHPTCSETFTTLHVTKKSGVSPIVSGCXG

[2] = system: S. mansoni adult worms; assay: GSH/GSSG ratio in ex vivo adult worms; type: cell-based; settings: for Ratio GSH/GSSG / % Ratio GSH/GSSG: first data set (r117-133); for Ratio GSH/GSSG: baseline 55.82; for % Ratio GSH/GSSG: baseline = 100
Procedure: We assessed GSH/GSSG levels experimentally by treating S. mansoni adult worms with 50 µM of compounds, or respective controls 5 µM Auranofin, 50 µM PZQ or 50 µM MZM and 0.01% DMSO for 3 h. Worm homogenate was prepared by washing three times with PBS to remove residual compounds and ten volumes of ice cold 5% sulfosalicylic acid was added. Worms were manually homogenized on ice using VWR Pellet Mixer Adaptor. The worm suspension was centrifuged at 14000 × g, 4 °C for 10 min and the acid supernatants transferred. An equal volume of ice-cold neutralization buffer (500 mM HEPES, pH 8.0) was added to the acid supernatants.
GSH/GSSG assay was performed by diluting the acid supernatant (5-fold) with ice-cold dilution buffer (250 mM HEPES, pH 7.5). Using white opaque luminescence plate on ice, 25 µl of the diluted worm acid supernatant was added each well in triplicates. Total glutathione lysis reagent and GSSG lysis reagent, which contains alkylating agent N-ethylmaleimide (25 mM) were prepared following manufactures protocol and added to respective wells along with blank for background. Total glutathione lysis reagent or oxidized glutathione lysis reagent (25 µl) was added to respective wells containing worm acid supernatants and the plate was shaken for 5 min. Luciferin generation reagent (LGR) (50 µl) was added to all wells, briefly shaken and incubated at room temperature for 30 min. Luciferin detection reagent (LDR) (100 µl) was added to all wells, briefly shaken and incubated for 15 min at room temperature and the luminescence measured using microplate imager (BioTek Cytation3). GSH/GSSH ratio for DMSO control and compounds were calculated using (Net DMSO total glutathione RFU) – (Net DMSO GSSG RFU)/ (Net DMSO GSSG RFU)/2 and (Net inhibitor total glutathione RFU) – (Net inhibitor GSSG RFU)/ (Net inhibitor GSSG RFU)/2 respectively.

[3] = target: T2, Human TrxR1 (Homo sapiens, UniProt Q16881); assay: Human TrxR1 enzyme inhibition (DTNB reduction); type: biochemical; settings: for % inhibition: hsTrxR; for % inhibition / hsTrxR % inhibition: 15 minutes pre-incubation
T2 construct: made in house
T2 sequence (Q16881 1-499 isoform Q16881-5): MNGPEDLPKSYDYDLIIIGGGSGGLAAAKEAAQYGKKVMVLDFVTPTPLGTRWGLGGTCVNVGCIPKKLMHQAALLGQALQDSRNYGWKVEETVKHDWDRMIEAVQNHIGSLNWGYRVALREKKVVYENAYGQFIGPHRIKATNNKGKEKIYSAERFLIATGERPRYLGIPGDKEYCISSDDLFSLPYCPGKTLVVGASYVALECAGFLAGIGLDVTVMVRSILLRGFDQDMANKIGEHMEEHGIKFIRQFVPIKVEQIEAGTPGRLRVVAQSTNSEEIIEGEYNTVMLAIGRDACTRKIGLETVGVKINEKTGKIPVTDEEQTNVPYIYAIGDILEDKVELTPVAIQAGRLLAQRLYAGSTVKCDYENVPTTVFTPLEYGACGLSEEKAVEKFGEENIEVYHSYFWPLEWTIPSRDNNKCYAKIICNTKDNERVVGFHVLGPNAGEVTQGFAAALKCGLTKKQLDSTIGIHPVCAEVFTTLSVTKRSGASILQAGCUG
Procedure: Recombinant TGR, human TrxR1, B. malayi (Bm)TrxR and human GR proteins were expressed and purified as described[20],[69],[79]. The codon optimized sequence for P. falciparum (PfTrxR, https://www.ncbi.nlm.nih.gov/protein/CAA60574.1/) with an N-terminal 6-His tag was synthesized and inserted into pET15b (GenScript) and expressed in BL21 (DE3) cells and purified as described for human GR[20]. TGR and TrxR enzyme inhibition assays were performed in triplicate at 25 °C as described[20] in 0.1 M potassium phosphate (pH 7.4), 10 mM EDTA, 100 µM NADPH and 0.01% Tween-20. […] The reaction was started with addition of an equal volume of DTNB (6 mM) and NADPH (100 µM) and the increase in A412 during the first 3 min was recorded. […] The reaction was preincubated for 15 min. Activity was initiated with the addition of 1 mM GSSG and 100 μM NADPH and initial rates of NADPH oxidation were monitored at 340 nm. The reactions were done in triplicate. The IC50 was calculated in GraphPad Prism.

[4] = 15 minutes pre-incubation, compound 15 µM
[5] = 15 minutes pre-incubation, compound 30 µM
[6] = 15 minutes pre-incubation, compound 66.7 µM
[7] = 6 hours pre-incubation, compound 15 µM
[8] = 6 hours pre-incubation, compound 30 µM
[9] = 6 hours pre-incubation, compound 66.7 µM

In the case of `CC(=O)OC[C@H]1O[C@@H]([S-])[C@H](OC(C)=O)[C@@H](OC(C)=O)[C@@H]1OC(C)=O.CCP(CC)CC.[Au+]` [AF, auranofin, reference compound], the IC50 ([1]; 15 min preincubation (enzyme + 100 µM NADPH + compound)) is reported as 7 nM, the “Ratio GSH/GSSG” value ([2]; 1 hr) is reported as 8.34 and the “% Ratio GSH/GSSG” value ([2]; 1 hr) is reported as 14.9481%. The “Ratio GSH/GSSG” value ([2]; 3 hr) was 4.85, the “% Ratio GSH/GSSG” value ([2]; 3 hr) was 8.693% and the “Decrease (%) in GSH/GSSG ratio” value ([2]; adult worms, 3 h exposure to compounds at 50 μM) was 91%. It also gave an IC50 ([3]; 15 min preincubation (enzyme + 100 µM NADPH + compound), read-out: Human TrxR1 IC50) of 20 nM.

With `Cc1oc(-c2ccccc2)nc1CN[C@@H]1C[C@@H]2C[C@H]([C@H]1C)C2(C)C` [C3] the “% inhibition” value [1, 4] was 3.671%, the “% inhibition” value [1, 5] was 7.41% and the “% inhibition” value [1, 6] was 17.804%. For the same compound, the “% inhibition” value [1, 7] was 23.6178%, the “% inhibition” value [1, 8] was 33.5098% and the “% inhibition” value [1, 9] was 42.7576%. For the same compound, the “% inhibition” value ([3]; compound 15 µM) was 11.8305%, the “% inhibition” value ([3]; compound 30 µM) was 16.5848% and the “% inhibition” value ([3]; compound 66.7 µM) was 23.0303%.

For `Cc1oc(-c2ccc3ccccc3c2)nc1CNC1CCCCCC1` [C5], the “% inhibition” value [1, 4] was 26.4295%, the “% inhibition” value [1, 5] was 32.2766% and the “% inhibition” value [1, 6] was 38.9031%. For the same compound, the “% inhibition” value [1, 7] was 38.3649%, the “% inhibition” value [1, 8] was 50.2366% and the “% inhibition” value [1, 9] was 73.0458%. The “% inhibition” value ([3]; compound 15 µM) was 4.223%, the “% inhibition” value ([3]; compound 30 µM) was 2.584% and the “% inhibition” value ([3]; compound 66.7 µM) was 4.769%.

`C[C@@H]1[C@H]2C[C@@H](C[C@H]1NCc1nc3ccccc3n1C)C2(C)C` [C12] gave a TGR % inhibition ([1]; 15 minutes pre-incubation, 15 µM) of 0.03253%, a TGR % inhibition ([1]; 15 minutes pre-incubation, 30 µM) of 0.1888% and a TGR % inhibition ([1]; 15 minutes pre-incubation, 66.7 µM) of 0.4169%. For the same compound, the TGR % inhibition ([1]; 6 hours pre-incubation, 15 µM) was 0.1402%, the TGR % inhibition ([1]; 6 hours pre-incubation, 30 µM) was 1.567% and the TGR % inhibition ([1]; 6 hours pre-incubation, 66.7 µM) was 2.052%. It also gave a hsTrxR % inhibition ([3]; 15 µM) of 0.08203%, a hsTrxR % inhibition ([3]; 30 µM) of 0.1317% and a hsTrxR % inhibition ([3]; 66.7 µM) of 0.4216%.
